According to patent US9549965B2, “Pharmaceutical composition for treating a microbial infection” (HELPERBY THERAPEUTICS LIMITED, priority 2010, dated 2017):
≈ marks a conversion by molar mass, not a printed value. Structures can show the parent of a compound that is named as a salt. Where two headings read alike, the source gives them in different places.

Experiments:
[1] = tested on: persistent E. coli; test: Bactericidal activity against persistent E. coli selected by gentamicin; assay type: cell-based, Escherichia coli; conditions: for log reduction at 6.25 µg/mL / log reduction at 12.5 µg/mL / log reduction at 25 µg/mL: Escherichia coli, read-out: Log Kill
Description: (§1) Escherichia coli K12; Gram negative; Reference strain.
An antibiotic (gentamicin) was added to 5-6 day stationary-phase cultures to the final concentration of 50 to 100 μg/ml for 24 hours. After 24 hours of antibiotic treatment, the cells are washed 3 times with phosphate buffered saline (PBS), and then resuspended in PBS. The surviving bacterial cells are used as persisters. Viability is estimated by CFU counts. The persisters were then used in measurements of bactericidal activity for test compounds.
Different concentrations of each test compound were incubated with the (persister) cell suspension in 96 well plates for various periods of time (24 and 48 hours). Bactericidal activity was then determined by taking CFU counts of the resulting cultures, as described above.

[2] = tested on: stationary phase S. aureus; test: Bactericidal activity against stationary phase S. aureus (CFU counts); assay type: cell-based, Staphylococcus aureus; conditions: for log reduction at 6.25 µg/mL / log reduction at 12.5 µg/mL / log reduction at 25 µg/mL: Staphylococcus aureus, read-out: Log Kill
Description: Staphylococcus aureus (Oxford strain); Gram positive; Reference strain.
(§2) Bacteria were grown in 10 ml of nutrient broth (No. 2 (Oxoid)) overnight at 37° C., with continuous shaking at 120 rpm. The overnight cultures were diluted (1000×) in 100 ml of growth medium and then incubated without shaking for 10 days. Viability of the bacteria was estimated by colony forming unit (CFU) counts at 2 hour intervals at the first 24 hours and at 12-24 hours afterwards. From serial 10-fold dilutions of the experimental cultures, 100 μl samples were added to triplicate plates of nutrient agar plates (Oxoid) and blood agar plates (Oxoid). Colony forming units (CFU) were counted after incubation of the plates at 37° C. for 24 hours.
(§3) Cultures incubated for more than 24 hours are in the stationary phase. For drug screening, 5-6 day old stationary phase cultures were used.
(§4) Different concentrations of each test compound were incubated with stationary phase cultures (5-6 day cultures) in 96 well plates for 24 or 48 hours. Bactericidal activity was then determined by taking CFU counts of the resulting cultures, as described above.

[3] = tested on: log phase E. coli; test: MIC against log phase E. coli; assay type: cell-based, Escherichia coli
Description: as §1
The above-described overnight cultures were diluted (1000×) with iso-sensitest broth. The cultures were then incubated at 37° C. with shaking for 1-2 hours to reach log CFU 6, which served as log phase cultures.
The bactericidal activity of the drugs against log phase cultures were determined by minimal inhibitory concentration (MIC) of the drugs, which is defined as the lowest concentration which inhibits visible growth. Different concentrations of each test compound were incubated with the log-phase cultures in 96 well plates for 24 hours. Bactericidal activity was then examined by taking a spectrophotometer reading (using a plate reader) at 405 nm.

[4] = tested on: stationary phase E. coli; test: Bactericidal activity against stationary phase E. coli (CFU counts); assay type: cell-based, Escherichia coli; conditions: for log reduction at 6.25 µg/mL / log reduction at 12.5 µg/mL / log reduction at 25 µg/mL: Escherichia coli, read-out: Log kill
Description: as §1, §2, §3, §4

[5] = tested on: NDM-1 Klebsiella pneumoniae; test: Chequerboard analysis with colistin against NDM-1 Klebsiella pneumoniae; assay type: cell-based
[6] = Escherichia coli, read-out: MIC

| Compound | Log Kill ([1]; 6.25 μg/ml) | Log Kill ([1]; 12.5 μg/ml) | Log Kill ([1]; 25 μg/ml) | Log Kill ([2]; 6.25 μg/ml) | Log Kill ([2]; 12.5 μg/ml) | Log Kill ([2]; 25 μg/ml) | MIC [3] | Log Kill ([4]; 6.25 μg/ml) | Log Kill ([4]; 12.50 μg/ml) | Log Kill ([4]; 25.00 μg/ml) | log reduction at 6.25 µg/mL ([1]; 6.25 μg/ml) | log reduction at 12.5 µg/mL ([1]; 12.5 μg/ml) | log reduction at 25 µg/mL ([1]; 25 μg/ml) | log reduction at 6.25 µg/mL ([2]; 6.25 μg/ml) | log reduction at 12.5 µg/mL ([2]; 12.5 μg/ml) | log reduction at 25 µg/mL ([2]; 25 μg/ml) | MIC [3, 6] [µg/mL] | other results |
| --- | --- | --- | --- | --- | --- | --- | --- | --- | --- | --- | --- | --- | --- | --- | --- | --- | --- | --- |
| N.N.O=C([O-])C1(C(=O)[O-])CCC1.[Pt+2] [Carboplatin] | 1.55 | 2.55 | 6.21 | 0.92 | 6.03 | 6.03 | — (— signifies MIC higher than 50 μg/ml) | 6.14 | 6.14 | 6.14 | – | – | – | – | – | – | – | – |
| CN(C)CC/C=C1/c2ccccc2Sc2ccc(Cl)cc21 [Chlorprothixene hydrochloride] | – | – | – | – | – | – | – | – | – | – | 0.02 | 0.03 | 6.21 | 1.83 | 6.15 | 6.15 | 20 | spectrophotometer reading ([5]; chlorprothixene hydrochloride 0.25 mg/L alone): 1.14; spectrophotometer reading ([5]; chlorprothixene hydrochloride 0.5 mg/L alone): 1.15; spectrophotometer reading ([5]; chlorprothixene hydrochloride 1 mg/L alone): 1.13; spectrophotometer reading ([5]; chlorprothixene hydrochloride 2 mg/L alone): 1.12; spectrophotometer reading ([5]; chlorprothixene hydrochloride 4 mg/L alone): 1.12; spectrophotometer reading ([5]; chlorprothixene hydrochloride 8 mg/L alone): 1.13; spectrophotometer reading ([5]; chlorprothixene hydrochloride 16 mg/L alone): 1.10; spectrophotometer reading ([5]; chlorprothixene hydrochloride 32 mg/L alone): 1.05; spectrophotometer reading ([5]; chlorprothixene hydrochloride 64 mg/L alone): 0.70; spectrophotometer reading ([5]; chlorprothixene hydrochloride 128 mg/L alone): 0.62; spectrophotometer reading ([5]; chlorprothixene hydrochloride 256 mg/L alone): 0.40 |
| N.N.[Cl][Pt][Cl] [Cisplatin] | 6.21 | 6.21 | 6.21 | 6.03 | 6.03 | 6.03 | — (— signifies MIC higher than 50 μg/ml) | 6.14 | 6.14 | 6.14 | – | – | – | – | – | – | – | – |
| CO[C@@]12[C@H](COC(N)=O)C3=C(C(=O)C(C)=C(N)C3=O)N1C[C@@H]1N[C@@H]12 [Mitomycin C] | 6.21 | 6.21 | 6.21 | 6.15 | 6.15 | 6.15 | 0.3 µg/mL (≈ 0.897 µM) | 2.27 | 6.14 | 6.14 | – | – | – | – | – | – | – | – |
| Cl.Cl.O=C1c2c(O)ccc(O)c2C(=O)c2c(NCCNCCO)ccc(NCCNCCO)c21 [Mitoxanthrone hydrochloride] | 6.21 | 6.21 | 6.21 | – | – | – | — (— signifies MIC higher than 50 μg/ml) | 6.14 | 6.14 | 6.14 | – | – | – | – | – | – | – | – |
| N=C1C=CC(=C(c2ccc(N)cc2)c2ccc(N)cc2)C=C1 [Pararosaniline pamoate] | – | – | – | – | – | – | – | – | – | – | -0.01 | 0.01 | 6.21 | 6.15 | 6.15 | 6.15 | 10 | log reduction at 6.25 µg/mL ([4]; 6.25 μg/ml): 1.9; log reduction at 12.5 µg/mL ([4]; 12.50 μg/ml): 6.14; log reduction at 25 µg/mL ([4]; 25.00 μg/ml): 6.14 |
| C[n+]1cc2c3c(ccc2c2ccc4cc5c(cc4c21)OCO5)OCO3 [Sanguinarine sulfate] | – | – | – | – | – | – | – | – | – | – | 0.04 | 1.47 | 6.21 | 6.15 | 6.15 | 6.15 | > 50 | log reduction at 6.25 µg/mL ([4]; 6.25 μg/ml): -0.1; log reduction at 12.5 µg/mL ([4]; 12.50 μg/ml): 2.4; log reduction at 25 µg/mL ([4]; 25.00 μg/ml): 6.14 |
| Bleomycin | 1.55 | 6.21 | 6.21 | – | – | – | 0.15 µg/mL | 2.22 | 6.14 | 6.14 | – | – | – | – | – | – | – | – |
